Data on four molecules can be found in US20150126464A1, “THERAPEUTIC DRUG AND THERAPEUTIC METHOD FOR NEUROLOGICAL DISEASES INCLUDING ALZHEIMER'S DISEASE ASSOCIATED WITH 1,25D3-MARRS” (priority 2013, published 2015).

Series [1] relates to rat cortical neurons (SD E18). In words: Measurement of axon density in cortical neurons with or without 1,25D3-MARRS knockdown. Particulars: 1 μM, 4 days, vs vehicle; for density of pNF-H-positive axons per MAP2-positive neuron, control groups: control (no 1,25D3-MARRS knockdown) cortical neurons; for density of pNF-H-positive axons per MAP2-positive neuron, 1,25D3-MARRS knockdown groups: neurons transfected with siRNA for 1,25D3-MARRS (400 nM).
Source text: siRNAs were transfected into rat cortical neurons (SD E18) according to the manufacturer's protocol for nucleofection (Lonza, Bazel, Switzerland). […] Two days after the transfection, the cells were fixed and double-immunostained with a monoclonal antibody against a neuron marker MAP2a/2b (1:500, NeoMarker, Fremont, Calif., USA) and Ab099 clone, a specific antibody for 1,25D3-MARRS (1:500, provided by Dr. Nemere).
Twelve to fourteen images were captured. The lengths of the pNF-H-positive axons were measured using an image analyzer Neurocyte (Kurabo), which automatically traces and measures neurite length without measuring the cell bodies. The sum of the axon lengths was divided by the number of MAP2-positive neurons.
1,25D3-MARRS was knocked down using siRNA transfection. […] Two days after the siRNA transfection, denosomin (1 μM) or a vehicle solution was applied to the cells. Further, after 4-day incubation, the cells were double-immunostained for pNF-H and MAP2 to measure the axonal length per neuron.

In a further series the test system is normal mice. In words: Novel object recognition test in normal mice. The settings on record: normal ddY mice, dioscin 30 μmol/kg/day orally 4 days. The series is classed as in vivo, mouse. As to the method:
Diosgenin (Wako Pure Chemical Industries, Ltd., Osaka, Japan) was dissolved in ethanol at 10 times the final concentration to give a stock solution, and the stock solution was diluted in a 5% aqueous solution of glucose to the final concentration. The diosgenin solution was intraperitoneally administered to normal mice (ddY mice, male, 6 weeks old) once a day (10 μmol/kg/day) for 5 or 6 days. One hour after the last administration, each mouse was housed in a separate open-field box made of polyvinyl chloride (33 cm×28 cm; height: 26.5 cm), habituated to the environment for 10 minutes, and used in the test.
Using the mice of Example 8 and Comparative Example 11, a novel object recognition test was performed to evaluate the object recognition memory. Testing was carried out in a dimly illuminated room (100 lux). The test was performed as described in Joyashiki, E. et sl., Int J Neurosci, 121, 181-190, 2011 and Tohda, C. et al., Int J Neurosci, 121, 641-648, 2011, written by the inventors and others, except that the time interval between a training session and a test session was 48 hours. As a locomotion index, the path of each mouse was tracked using a digital camera system. The distance each mouse traveled during the 10 minutes was analyzed as locomotion activity with EthoVision 3.0 (Noldus, Wageningen, The Netherlands).
The diosgenin solution was intraperitoneally administered to normal mice (C57BL/6, male, 8 weeks old) (100 μmol/kg/day) for 14 days. On the day after the 14th administration, the mice were used in the test.
Using the mice of Example 9 and Comparative Example 12, the novel object recognition test was performed. The test was performed under the conditions as described above.
Dioscin in an amount of 30 μmol/kg/day was orally administered to normal mice (ddY mice, male, 6 weeks old) for 4 days. Dioscin (Chromadex, Irvine, Calif., USA) was dissolved in ethanol at 10 times the final concentration to give a stock solution, and the stock solution was diluted in a 5% aqueous solution of glucose to the final concentration. […]

Series [2] relates to 5XFAD mice. Briefly: Novel object recognition test in 5XFAD mice (Alzheimer's disease model). The series is classed as in vivo, mouse. From the text:
Transgenic mice (5XFAD) as an animal model of AD were obtained from the Jackson Laboratory (Bar Harbor, Me., USA). The 5XFAD mice overexpress human APP695 cDNA having Swedish mutation (K670N and M671L), Florida mutation (I716V) and London mutation (V717I) and human PS1 cDNA (M146L and L286V) under the transcriptional control of the neuron-specific mouse Thy-1 promoter (Oakley, H. et al., J Neurosci, 26, 10129-10140, 2006). They were maintained by crossing hemizygous transgenic mice with B6/SJL F1 breeders.
To investigate the effect of diosgenin on 5XFAD, hemizygous 5XFAD mice (female, 6 to 8 months old) and non-transgenic littermate wild-type mice (female, 6 to 8 months old) were used. These mice were obtained by crossing hemizygous 5XFAD mice and B6/SJL F1 mice. All mice were housed with free access to food and water and were kept in a controlled environment (22±2° C., 50±5% humidity, 12-h light/dark cycle starting at 7:00 am).
Diosgenin was dissolved in dimethyl sulfoxide (DMSO) at 10 times the final concentration to give a stock solution. The stock solution was diluted in physiological saline to the final concentration immediately before treatment. The diosgenin solution was intraperitoneally administered to 5XFAD mice once a day (10 μmol/kg=4.14 mg/kg) for 20 days. On the last day of administration (Day 20), each mouse was housed in a separate open-field box made of polyvinyl chloride (33 cm×[…]; height: 26.5 cm) and habituated to the environment for 10 min. […]
For each mouse of Example 1, Comparative Examples 1 and 2, and Reference Example 1, the path during the 10-minute habituation was tracked using a digital camera system. The distance each mouse traveled during the 10 minutes was analyzed as locomotion activity with EthoVision 3.0 (Noldus, Wageningen, The Netherlands). […] In the present invention, the ratio (%) of the exploration time for the novel object to the total exploration time was calculated as an exploration preferential index. […]

A short description of series [3]: Body weight during dioscin administration. The series is classed as in vivo, mouse. As to the method: Dioscin in an amount of 30 μmol/kg/day was orally administered to normal mice (ddY mice, male, 6 weeks old) for 4 days. Dioscin (Chromadex, Irvine, Calif., USA) was dissolved in ethanol at 10 times the final concentration to give a stock solution, and the stock solution was diluted in a 5% aqueous solution of glucose to the final concentration. One hour after the last administration, the mice were used in the test.
Dioscin (30 μmol/kg/day) was orally administered to 5XFAD mice (male, 20 weeks old) for 6 days. One hour after the last administration, the training session was initiated.

The test system of series [4] is 5XFAD mice. In words: Immunohistochemistry of brain slices of 5XFAD mice (amyloid plaques, PHF-tau, abnormal axons, presynapses). The series is classed as in vivo, mouse. The settings on record: vs vehicle-treated 5XFAD, diosgenin 10 μmol/kg, memantine hydrochloride 200 μmol/kg/day i.p. 20 days. On the procedure:
One day after the novel object recognition test, the mice were anesthetized and transcardially perfused with cold physiological saline. The brains were carefully removed from the skull, immediately immersed in 10 to 30% sucrose-PBS and stored at -80° C. The brains were cut in 20-μm successive coronal slices every 100 μm in the parietal area (bregma 1.4-2 mm) sections using a cryostat (C[…], Leica, Heidelberg, Germany). The slices were fixed with 4% paraformaldehyde and stained with a polyclonal antibody against Aβ (1-40/42) (1:300) (Chemicon, Temecula, Calif., USA), a monoclonal antibody against pNF-H (1:500) (Covance, Emeryville, Calif., USA), a monoclonal antibody against synaptophysin (1:500) (Sigma-Aldrich), and a monoclonal antibody against PHF-tau (Thermo Scientific, Rockford, Ill., USA) at 4° C. for 20 hours. […] Three successive brain slices of the frontal cortex and five successive slices of the hippocampus were captured from a mouse for quantification. Extracellular amyloid plaques were determined by the size (greater than 50 μm in width), and the area of amyloid plaques was measured using the image analyzing software ImageJ. The area of the pNF-H-positive abnormal bulb-like axons was measured using ImageJ for every amyloid plaque in the fluorescent images (324 μm×430 μm). The areas of the synaptophysin-positive presynaptic boutons in every amyloid plaque were measured in fluorescent images (324 μm×430 μm) using Image J. The areas of PHF-tau in every amyloid plaque and outer amyloid plaques were measured in fluorescent images (324 μm×430 μm) using ImageJ.

Structures can show the parent of a compound that is named as a salt.

With `C=C1/C(=C\C=C2/CCC[C@]3(C)[C@@H]([C@H](C)CCCC(C)(C)O)CC[C@@H]23)C[C@@H](O)C[C@@H]1O` [DHVD3, 1α,25-dihydroxy vitamin D3, reference compound], in series [1], the “density of pNF-H-positive axons per MAP2-positive neuron, control groups” value is recorded as “significantly increased” and the “density of pNF-H-positive axons per MAP2-positive neuron, 1,25D3-MARRS knockdown groups” value is on record as “did not show any difference”.
For `C[C@@H]([C@H]1CC[C@H]2[C@@H]3CC=C4C[C@@H](O)CC[C@]4(C)[C@H]3CC[C@]12C)[C@H]1CC=C(CO)C(=O)O1` [denosomin], in that order: “significantly increased” and “almost completely inhibited”.
As to `C[C@@H]1CC[C@@]2(OC1)O[C@H]1C[C@H]3[C@@H]4CC=C5C[C@@H](O[C@@H]6O[C@H](CO)[C@@H](O[C@@H]7O[C@@H](C)[C@H](O)[C@@H](O)[C@H]7O)[C@H](O)[C@H]6O[C@@H]6O[C@@H](C)[C@H](O)[C@@H](O)[C@H]6O)CC[C@]5(C)[C@H]4CC[C@]3(C)[C@H]1[C@@H]2C` [dioscin], the “behavior index of exploratory behavior for the novel object” value in the series on normal mice is “higher than 50%”; with 5XFAD mice [2] (dioscin 30 μmol/kg/day orally 6 days, one hour training-test interval), “higher than 50%”. The body weight result in series [3] (5XFAD mice, dioscin 30 μmol/kg/day orally 6 days) is on record as “None of the groups showed marked change”. Further, the “transition of body weight” value in series [3] (normal ddY mice, dioscin 30 μmol/kg/day orally 4 days) was “no significant difference”.
Take `CC12CC3CC(C)(C1)CC(N)(C3)C2` [memantine, Memantine hydrochloride, reference compound]: in the series on 5XFAD mice [2] (i.p. once a day for 20 days, diosgenin 10 μmol/kg, memantine hydrochloride 200 μmol/kg/day, 30 min training-test interval), the “novel object preferential index (exploration preferential index), test session” value is given as 50%. Also, in the series on 5XFAD mice [4], the “area of abnormal axons (swollen axon area) per amyloid plaque in the cerebral cortex” value was “not significantly reduced”, the “area of abnormal axons (swollen axon area) per amyloid plaque in the hippocampus” value is “inversely significantly increased”, the “total area of PHF-tau in the cerebral cortex” value is given as “not significantly different” and the “total area of PHF-tau in the hippocampus” value is “inversely significantly increased”. In the series on 5XFAD mice [4], the “total area of amyloid plaques in the hippocampus” value is given as “significantly reduced in the hippocampus”.
